Reference: US9682985B2, “(Indazol-4-yl) hexahydropyrrolopyrrolones and methods of use” (AbbVie Inc., priority 2015, dated 2017)

How the values were obtained:
recombinant human Nav1.7 = target: T1, recombinant human Nav1.7 (Homo sapiens, UniProt Q15858); assay: FRET-based membrane potential assay, Nav1.7; type: cell-based; conditions: HEK293 cells expressing recombinant human Nav1.7; veratridine + scorpion venom depolarization
T1 construct: expressed in transfected cells; host or cells: HEK293

recombinant human Nav1.8 = target: T2, recombinant human Nav1.8 (Homo sapiens, UniProt Q9Y5Y9); assay: FRET-based membrane potential assay, Nav1.8; type: cell-based; conditions: HEK293 cells expressing recombinant human Nav1.8; veratridine + scorpion venom depolarization
T2 construct: host or cells: HEK293
T2 sequence (Q9Y5Y9 whole entry): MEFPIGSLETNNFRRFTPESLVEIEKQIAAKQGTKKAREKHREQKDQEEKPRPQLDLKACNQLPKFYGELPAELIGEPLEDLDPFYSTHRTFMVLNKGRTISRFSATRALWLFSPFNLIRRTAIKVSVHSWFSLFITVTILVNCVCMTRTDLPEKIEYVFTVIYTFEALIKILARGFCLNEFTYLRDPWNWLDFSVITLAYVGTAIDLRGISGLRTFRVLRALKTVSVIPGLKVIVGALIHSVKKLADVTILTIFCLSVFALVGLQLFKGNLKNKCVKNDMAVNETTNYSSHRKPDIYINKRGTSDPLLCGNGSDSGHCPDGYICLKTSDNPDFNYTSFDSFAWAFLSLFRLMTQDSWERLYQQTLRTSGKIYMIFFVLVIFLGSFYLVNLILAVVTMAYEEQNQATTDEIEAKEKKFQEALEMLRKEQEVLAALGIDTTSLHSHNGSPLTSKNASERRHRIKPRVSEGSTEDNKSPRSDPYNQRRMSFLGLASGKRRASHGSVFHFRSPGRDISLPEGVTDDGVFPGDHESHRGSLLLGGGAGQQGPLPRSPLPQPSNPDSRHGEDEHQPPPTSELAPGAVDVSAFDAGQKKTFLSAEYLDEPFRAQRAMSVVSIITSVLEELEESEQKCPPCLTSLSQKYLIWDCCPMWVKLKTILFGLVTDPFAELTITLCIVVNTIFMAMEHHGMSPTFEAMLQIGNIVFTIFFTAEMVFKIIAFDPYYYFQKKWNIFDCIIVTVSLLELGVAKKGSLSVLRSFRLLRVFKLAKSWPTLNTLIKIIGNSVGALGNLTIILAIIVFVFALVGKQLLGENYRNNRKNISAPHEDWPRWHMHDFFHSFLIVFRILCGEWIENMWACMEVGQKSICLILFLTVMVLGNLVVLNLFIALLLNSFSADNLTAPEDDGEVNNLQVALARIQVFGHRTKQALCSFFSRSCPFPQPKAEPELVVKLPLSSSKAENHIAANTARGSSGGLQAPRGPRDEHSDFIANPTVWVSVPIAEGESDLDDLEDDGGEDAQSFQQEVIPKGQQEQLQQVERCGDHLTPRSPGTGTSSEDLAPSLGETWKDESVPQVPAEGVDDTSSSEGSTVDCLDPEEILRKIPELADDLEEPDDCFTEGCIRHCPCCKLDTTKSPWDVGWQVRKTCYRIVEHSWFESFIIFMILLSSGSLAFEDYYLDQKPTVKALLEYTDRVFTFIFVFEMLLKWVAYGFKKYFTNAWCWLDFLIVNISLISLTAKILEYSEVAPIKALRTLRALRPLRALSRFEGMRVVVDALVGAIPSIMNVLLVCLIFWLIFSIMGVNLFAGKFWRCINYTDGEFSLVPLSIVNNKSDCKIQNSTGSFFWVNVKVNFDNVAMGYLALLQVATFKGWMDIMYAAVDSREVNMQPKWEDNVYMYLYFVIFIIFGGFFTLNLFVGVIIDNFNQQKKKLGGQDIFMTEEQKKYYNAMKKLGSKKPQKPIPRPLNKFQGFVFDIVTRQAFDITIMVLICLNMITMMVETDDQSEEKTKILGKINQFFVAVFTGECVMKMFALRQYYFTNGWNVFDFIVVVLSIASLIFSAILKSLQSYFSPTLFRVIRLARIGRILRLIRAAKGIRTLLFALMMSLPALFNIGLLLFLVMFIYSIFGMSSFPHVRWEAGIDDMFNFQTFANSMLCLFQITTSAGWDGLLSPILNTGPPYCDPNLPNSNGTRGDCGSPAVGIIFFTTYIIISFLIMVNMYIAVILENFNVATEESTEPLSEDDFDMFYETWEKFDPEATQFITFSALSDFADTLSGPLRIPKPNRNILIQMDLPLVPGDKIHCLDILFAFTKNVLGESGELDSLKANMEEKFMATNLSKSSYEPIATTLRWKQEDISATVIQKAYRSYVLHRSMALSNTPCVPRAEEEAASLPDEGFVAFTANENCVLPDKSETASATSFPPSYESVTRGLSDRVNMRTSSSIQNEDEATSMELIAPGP

[1] = tested on: MIA-induced osteoarthritic pain in rats; assay: Osteoarthritic (OA) pain induced by sodium monoiodoacetate (MIA), hind limb grip force; type: in vivo; conditions: rat MIA-OA, 20 days after MIA
Description: Osteoarthritic (OA) Pain Induced by Sodium Monoiodoacetate (MIA)
Pain behavior was assessed by measurement of hind limb grip force (GF) in adult osteoarthritic rats. Male Sprague Dawley rats, obtained from Charles River Laboratories, (Wilmington, Mass.), weighing 150-175 g, were injected in the unilateral knee join with a single intra-articular injection of sodium monoiodoacetate (MIA, 3 mg/rat). All rats were tested at 20 days following MIA injection. A behavioral measure of activity-induced pain was carried out. Measurements of the peak hind limb grip force were conducted by recording the maximum compressive force (CFmax), in grams of force, exerted on a hind limb strain gauge setup, in a commercially available grip force measurement system (Columbus Instruments, Columbus, Ohio).
During testing, each rat was gently restrained by grasping it around its rib cage and then allowed to grasp the wire mesh frame attached to the strain gauge. The experimenter then moved the animal in a rostral-to-caudal direction until the grip was broken. Each rat was sequentially tested twice at an approximately 2-3 minute interval to obtain a raw mean grip force (CFmax). This raw mean grip force data was in turn converted to a maximum hindlimb cumulative compressive force (CFmax), as the grams of force/kg of body weight, for each animal.
For evaluating the compound effects, the hind limb grip force was conducted 20 days following the intra-articular injection of MIA. A group of age-matched naïve (not injected with MIA) animals was added as a comparator to the drug-dosed groups. The vehicle control response for each group of MIA-treated animals was defined as the 0% response (0% effect), whereas the naïve control group was defined as the normal response and as 100% effect. The % effect for each dose group was expressed as % return of response to normalcy, compared to the naïve group. A percent maximal possible effect (% MPE) of testing compound was calculated according to the formula: (Treatment CFmax Vehicle CFmax)/Vehicle CFmax]×100). Higher % effect numbers indicate increased relief from the pain in the model, with 100% indicating a return to the level of response seen in normal (non-osteoarthritic) animals. All experiments evaluating drug effects in this model were conducted in a randomized blinded fashion.
The animals were housed in Association for Assessment and Accreditation of Laboratory Animal Care (AAALAC) approved facilities at AbbVie Inc. in a temperature-regulated environment under a controlled 12-hour light-dark cycle, with lights on at 6:00 a.m. Food and water were available ad libitum at all times except during testing. All testing was done following procedures outlined in protocols approved by AbbVie Inc.'s Institutional Animal Care and Use Committee.

hERG channel (Kv11.1) = target: T3, hERG channel (Kv11.1) (Homo sapiens, UniProt Q12809); assay: hERG QPatch screening protocol (hERG current block); type: cell-based; conditions: HEK-293 cells stably transfected with hERG; tail current; room temperature
T3 construct: W. January (Wisconsin Alumni Research Foundation); host or cells: HEK-293
T3 sequence (Q12809 whole entry): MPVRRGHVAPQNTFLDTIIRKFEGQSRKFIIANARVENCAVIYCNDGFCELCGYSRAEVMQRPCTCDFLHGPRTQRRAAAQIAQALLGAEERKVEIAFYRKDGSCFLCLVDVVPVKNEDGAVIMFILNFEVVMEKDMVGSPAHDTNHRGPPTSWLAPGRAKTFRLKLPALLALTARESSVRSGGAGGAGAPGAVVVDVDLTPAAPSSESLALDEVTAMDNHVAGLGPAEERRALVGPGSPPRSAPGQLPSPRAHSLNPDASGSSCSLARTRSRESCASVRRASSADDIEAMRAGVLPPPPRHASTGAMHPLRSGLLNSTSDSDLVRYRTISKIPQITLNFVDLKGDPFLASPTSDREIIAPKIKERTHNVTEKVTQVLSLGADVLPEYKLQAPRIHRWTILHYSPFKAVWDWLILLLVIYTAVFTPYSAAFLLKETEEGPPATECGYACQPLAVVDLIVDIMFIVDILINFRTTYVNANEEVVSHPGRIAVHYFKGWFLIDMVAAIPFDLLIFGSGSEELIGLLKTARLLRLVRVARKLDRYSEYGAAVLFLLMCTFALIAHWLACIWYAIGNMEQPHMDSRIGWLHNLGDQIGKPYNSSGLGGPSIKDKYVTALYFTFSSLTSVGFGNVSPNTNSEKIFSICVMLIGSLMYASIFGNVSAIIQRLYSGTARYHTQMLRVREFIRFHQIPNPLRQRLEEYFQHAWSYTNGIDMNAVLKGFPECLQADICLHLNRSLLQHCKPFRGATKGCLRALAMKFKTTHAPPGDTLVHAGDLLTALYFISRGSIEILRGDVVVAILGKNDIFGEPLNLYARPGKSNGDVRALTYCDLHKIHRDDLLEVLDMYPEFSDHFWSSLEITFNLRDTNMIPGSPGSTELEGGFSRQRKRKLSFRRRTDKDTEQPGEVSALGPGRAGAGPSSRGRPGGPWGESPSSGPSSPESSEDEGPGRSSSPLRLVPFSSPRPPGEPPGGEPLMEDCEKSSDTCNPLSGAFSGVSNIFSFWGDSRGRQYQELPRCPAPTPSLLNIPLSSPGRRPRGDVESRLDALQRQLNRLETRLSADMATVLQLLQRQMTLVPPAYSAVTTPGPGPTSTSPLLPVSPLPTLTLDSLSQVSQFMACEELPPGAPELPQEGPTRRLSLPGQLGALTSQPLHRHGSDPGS
Description: hERG QPatch Screening Protocol
Solutions and Compound Plates:
The bath solution contained (in mM): 140 NaCl, 5 KCl, 1 MgCl2, 2 CaCl2, 5 glucose, 20 HEPES, pH=7.4. The internal solution contained (in mM): 125 K-aspartate, 20 KCl, 10 EGTA, 5 MgATP, 1 MgCl2, 5 HEPES, pH=7.3.
Compound plates were prepared with an acoustic liquid handler (Echo® 550, Labcyte), using 384-well source plates and 96-well destination plates. Compounds were delivered to the destination plates as 300 nL spots in half-log increments (1, 3, 10 and 30 mM), dissolved in dimethyl sulfoxide. Plates were solvated with bath solution (300 μL) to final concentrations (1, 3, 10 and 30 μM; 0.1% dimethyl sulfoxide) and added to the QPatch workstation.
Cells and Cell Preparation:
Human embryonic kidney (HEK-293) cells, stably transfected with the hERG channel, were obtained from Dr. C. W. January (Wisconsin Alumni Research Foundation). Cells were initially maintained at 37° C. (5% CO2 atmosphere) in MEM supplemented media. Cells were cryo-preserved in 10% dimethyl sulfoxide, 90% fetal bovine serum at 10 M cells/mL. For electrophysiological studies, cells were thawed, resuspended in media at 1.0-1.5 M cells/mL and placed on the QPatch workstation.
QPatch Electrophysiology Workstation and Experimental Protocol:
Currents were recorded using QPatch HT (Sophion), an automated planar patch-clamp system. The QPatch uses forty-eight amplifiers and a 48-chamber QPlate positioned directly on top of the headstage. To obtain high resistant seals, cells are added to each chamber and allowed to settle for 10 seconds. Negative pressure is then applied to promote cell delivery to the patch chip openings on the chamber bottom. After formation of GΩ seals, negative pressure ramps are applied to obtain intracellular access. Access resistance was initially optimized by additional pressure ramps to assure the intracellular access was adequate for voltage clamp experiments (targeted access resistance <10 MΩ). Whole-cell compensation and series resistance compensation were used at 60% (both predicted and corrected). Experiments using QPatch were conducted at room temperature.
A single application of each concentration was applied to cells. During a five-minute wash-in period, a four-second depolarizing pulse to +20 mV, followed by a five-second repolarizing pulse to −50 mV was applied once every 15 seconds from a holding potential of −80 mV. Cells were exposed to four ascending concentrations of drug in half-log intervals.
Evaluation of hERG Current Block:
hERG tail current was measured as the difference in amplitude between a […] and the end of a five-second test pulse to −50 mV, preceded by a four-second pulse to +20 mV. The hERG IC50 values for compounds were determined from tail current analysis. The IC50 was calculated with a logistic fitting routine using the following equation: y=[(A1−A2)/(1+(x/IC50))^p]A2, where A1=initial×value, A2=final×value and p=power.

T1 sequence (Q15858 whole entry): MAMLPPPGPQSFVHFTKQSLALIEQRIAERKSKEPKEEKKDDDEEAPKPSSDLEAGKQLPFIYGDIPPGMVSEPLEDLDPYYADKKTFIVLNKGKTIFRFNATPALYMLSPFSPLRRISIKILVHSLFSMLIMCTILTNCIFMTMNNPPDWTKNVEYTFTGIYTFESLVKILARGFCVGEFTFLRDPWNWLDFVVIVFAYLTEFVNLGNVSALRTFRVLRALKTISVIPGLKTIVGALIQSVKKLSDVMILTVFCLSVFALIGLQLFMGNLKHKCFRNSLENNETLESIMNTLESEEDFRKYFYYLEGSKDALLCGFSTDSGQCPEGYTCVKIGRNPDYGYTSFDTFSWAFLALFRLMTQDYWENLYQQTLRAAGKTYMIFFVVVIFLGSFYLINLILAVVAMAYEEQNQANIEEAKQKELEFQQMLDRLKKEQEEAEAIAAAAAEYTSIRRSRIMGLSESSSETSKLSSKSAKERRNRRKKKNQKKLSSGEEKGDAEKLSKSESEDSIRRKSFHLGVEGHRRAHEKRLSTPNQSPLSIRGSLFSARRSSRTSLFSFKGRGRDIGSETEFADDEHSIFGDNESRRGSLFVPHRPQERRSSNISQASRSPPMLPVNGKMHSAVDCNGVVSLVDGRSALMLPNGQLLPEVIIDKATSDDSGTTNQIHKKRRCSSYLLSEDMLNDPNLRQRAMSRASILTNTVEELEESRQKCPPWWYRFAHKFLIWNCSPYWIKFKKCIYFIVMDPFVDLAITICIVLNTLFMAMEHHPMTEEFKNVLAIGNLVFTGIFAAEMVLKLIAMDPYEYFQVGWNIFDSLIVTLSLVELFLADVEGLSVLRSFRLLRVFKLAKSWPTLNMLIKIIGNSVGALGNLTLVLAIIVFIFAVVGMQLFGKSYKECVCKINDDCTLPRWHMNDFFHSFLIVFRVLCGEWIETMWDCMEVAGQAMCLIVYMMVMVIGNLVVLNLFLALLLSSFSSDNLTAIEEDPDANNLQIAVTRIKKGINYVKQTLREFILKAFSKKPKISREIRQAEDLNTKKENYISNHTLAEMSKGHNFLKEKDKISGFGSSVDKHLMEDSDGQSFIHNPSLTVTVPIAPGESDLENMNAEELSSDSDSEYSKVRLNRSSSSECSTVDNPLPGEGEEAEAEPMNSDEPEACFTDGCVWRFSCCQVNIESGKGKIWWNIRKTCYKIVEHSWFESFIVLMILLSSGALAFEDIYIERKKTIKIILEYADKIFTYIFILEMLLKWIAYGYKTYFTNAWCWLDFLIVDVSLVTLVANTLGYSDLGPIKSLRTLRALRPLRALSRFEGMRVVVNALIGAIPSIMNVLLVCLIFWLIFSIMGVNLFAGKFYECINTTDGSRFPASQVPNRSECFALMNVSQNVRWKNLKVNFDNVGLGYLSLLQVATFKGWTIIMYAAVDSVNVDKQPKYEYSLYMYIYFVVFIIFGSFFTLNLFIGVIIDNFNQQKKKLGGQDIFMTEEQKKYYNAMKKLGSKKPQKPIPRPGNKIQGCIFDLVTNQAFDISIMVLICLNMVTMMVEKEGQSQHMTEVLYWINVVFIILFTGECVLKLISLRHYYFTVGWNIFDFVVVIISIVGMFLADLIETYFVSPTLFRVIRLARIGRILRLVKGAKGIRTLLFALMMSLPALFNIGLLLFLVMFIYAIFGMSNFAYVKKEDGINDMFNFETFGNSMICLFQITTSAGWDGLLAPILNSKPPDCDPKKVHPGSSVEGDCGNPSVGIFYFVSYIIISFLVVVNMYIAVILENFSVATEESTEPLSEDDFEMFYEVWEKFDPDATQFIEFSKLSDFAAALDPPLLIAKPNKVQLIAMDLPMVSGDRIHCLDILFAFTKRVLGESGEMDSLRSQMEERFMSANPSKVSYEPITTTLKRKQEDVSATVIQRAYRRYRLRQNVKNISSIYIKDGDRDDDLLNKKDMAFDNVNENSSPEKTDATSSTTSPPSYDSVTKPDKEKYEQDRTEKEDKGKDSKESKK

Row | Compound | IC50 (recombinant human Nav1.7) | IC50 (recombinant human Nav1.8) | OA MPE ([1]; OA dose 30 mg/kg) | IC50 (hERG channel (Kv11.1)) | OA MPE ([1]; OA dose 10 mg/kg)
1 | O=C(CCO)N1C[C@H]2CN(c3cccc4c3cnn4-c3ccccc3F)C(=O)[C@H]2C1 [Example 45, (3aS,6aR)-2-[1-(2-fluorophenyl)-1H-indazol-4-yl]-5-(3-hydroxypropanoyl)hexahydropyrrolo[3,4-c]pyrrol-1(2H)-one] | > 20 µM | > 20 µM |  |  | 
2 | CC(C)(O)CC(=O)N1CC[C@H]2CN(c3cccc4c3cnn4-c3ccccc3F)C(=O)[C@H]21 (single isomer, unassigned) [Example 2] |  | 2.38 µM | 62% | > 30 µM | 
3 | CC(C)(O)CC(=O)N1CC[C@@H]2CN(c3cccc4c3cnn4-c3ccccc3F)C(=O)[C@@H]21 (single isomer, unassigned) [Example 1] |  | 2.79 µM | 70% | > 30 µM | 
4 | CC(C)(O)C(=O)N1CC[C@H]2CN(c3cccc4c3cnn4-c3ccccc3F)C(=O)[C@H]21 [Example 49, (3aS,6aS)-5-[1-(2-fluorophenyl)-1H-indazol-4-yl]-1-(2-hydroxy-2-methylpropanoyl)hexahydropyrrolo[3,4-b]pyrrol-6(1H)-one] | 0.397 µM | 4.03 µM |  |  | 
5 | O=C(C1CCOC1)N1C[C@@H]2CN(c3cccc4c3cnn4-c3ccccc3F)C(=O)[C@@H]2C1 (stereo partly drawn) [Example 32, (3aR,6aS)-2-[1-(2-fluorophenyl)-1H-indazol-4-yl]-5-(tetrahydrofuran-3-ylcarbonyl)hexahydropyrrolo[3,4-c]pyrrol-1(2H)-one] | 1.69 µM |  |  | 7.43 µM | 9%
6 | CC(=O)N1CC[C@@H]2CN(c3cccc4c3cnn4-c3ccccc3F)C(=O)[C@@H]21 (relative stereo) [Example 6, rel-(3aR,6aR)-1-acetyl-5-[1-(2-fluorophenyl)-1H-indazol-4-yl]hexahydropyrrolo[3,4-b]pyrrol-6(1H)-one] | 13.1 µM | 14.7 µM |  |  | 
7 | CC(C)S(=O)(=O)N1C[C@@H]2CN(c3cccc4c3cnn4-c3ccccc3F)C(=O)[C@@H]2C1 [Example 24, (3aS,6aS)-2-[1-(2-fluorophenyl)-1H-indazol-4-yl]-5-(isopropylsulfonyl)hexahydropyrrolo[3,4-c]pyrrol-1 (2H)-one] | 1.98 µM | 0.59 µM |  | 17 µM | 66%
8 | C[C@@H](O)CC(=O)N1CC[C@@H]2CN(c3cccc4c3cnn4-c3ccccc3F)C(=O)[C@@H]21 (mixture of isomers) [Example 7, (3aR*,6aR*)-5-[1-(2-fluorophenyl)-1H-indazol-4-yl]-1-[(3R)-3-hydroxybutanoyl]hexahydropyrrolo[3,4-b]pyrrol-6(1H)-one] | 3.19 µM | 3.08 µM |  | > 30 µM | 
9 | NC(=O)CC(=O)N1C[C@H]2CN(c3cccc4c3cnn4-c3ccccc3F)C(=O)[C@H]2C1 [Example 44, 3-[(3aR,6aS)-5-[1-(2-fluorophenyl)-1H-indazol-4-yl]-4-oxohexahydropyrrolo[3,4-c]pyrrol-2(1H)-yl]-3-oxopropanamide] | > 20 µM | > 20 µM |  |  | 
10 | O=C1[C@H]2[C@H](CCN2C(=O)[C@@H]2CCOC2)CN1c1cccc2c1cnn2-c1ccccc1F (mixture of isomers) [Example 3, (3aR*,6aR*)-5-[1-(2-fluorophenyl)-1H-indazol-4-yl]-1-[(3R)-tetrahydrofuran-3-ylcarbonyl]hexahydropyrrolo[3,4-b]pyrrol-6(1H)-one] | 1.93 µM | 5.4 µM |  | > 30 µM | 
11 | O=C(Cc1coc2ccccc12)N1CC2CN(c3cccc4c3cnn4-c3ccccc3F)C(=O)C2C1 [Example 25, (3aR,6aS)-5-(1-benzofuran-3-ylacetyl)-2-[1-(2-fluorophenyl)-1H-indazol-4-yl]hexahydropyrrolo[3,4-c]pyrrol-1(2H)-one] | 1.29 µM |  |  | 4.31 µM | 
12 | CC(C)CS(=O)(=O)N1C[C@@H]2CN(c3cccc4c3cnn4-c3ccccc3F)C(=O)[C@@H]2C1 [Example 21, (3aS,6aS)-2-[1-(2-fluorophenyl)-1H-indazol-4-yl]-5-(isobutylsulfonyl)hexahydropyrrolo[3,4-c]pyrrol-1(2H)-one] | 0.903 µM |  |  | 14.2 µM | 
13 | CCS(=O)(=O)N1C[C@@H]2CN(c3cccc4c3cnn4-c3ccccc3F)C(=O)[C@@H]2C1 [Example 23, (3aS,6aS)-5-(ethylsulfonyl)-2-[1-(2-fluorophenyl)-1H-indazol-4-yl]hexahydropyrrolo[3,4-c]pyrrol-1(2H)-one] | 2.93 µM |  |  | > 30 µM | 
14 | CC(=O)N1C[C@H]2CN(c3cccc4c3cnn4-c3ccccc3F)C(=O)[C@H]2C1 [Example 46, (3aS,6aR)-5-acetyl-2-[1-(2-fluorophenyl)-1H-indazol-4-yl]hexahydropyrrolo[3,4-c]pyrrol-1(2H)-one] | 3.56 µM |  |  | > 30 µM | 
